Laboratory results reported in US12370239B2, “Microvascular blood flow decreasing agent and use thereof” (priority 2016, dated 2025).
Entries after “also recorded” stand apart in the source; their conditions may differ.

Tests used:
Format in all cases: in vivo, human
[1] = test system: blood vessels at a site having prolonged pain; test: Endovascular therapy to blood vessels at a site having prolonged pain, symptom improvement and side effects (Example 4); design: key to Effect (improvement in symptoms): an exacerbation in symptom=0; no change=1; an improvement in symptom and easiness in dairy living=2; almost satisfactory improvement=3; Side effect: scale not given here
Protocol: To 14 subject cases indicated in the table below who had blood vessels at a site having prolonged pain, endovascular therapy was carried out as follows, using pembrolizumab.
(§1) In all cases, fat suppression T2-weighted MRI image was obtained before treatment to select target vessels. 3Fr intraarterial-indwelling sheath (Medikit Co., Ltd.) was inserted from femoral artery by Seldinger method, allowed to reach the target vessel using 3Fr angiography catheter (Medikit Co., Ltd.), Radifocus 0.032″ external diameter guide wire (TERUMO Corp.), and microcatheter ASAHI Tellus C3, ASAHI Meister 0.016″ micro guide wire (ASAHI INTECC Co., Ltd.) as appropriate, then abnormal vascular networks are identified by contrast imaging.
Subsequently, as shown in the table, pembrolizumab 1 to 4 mg/body (mean=1.86 mg/body, median=2 mg/body) was mixed with the combined drugs in 100 ml of physiological saline, stirred with a stirrer while being infused into the target vessel in an amount such that a sufficient decrease in abnormal vessel density was confirmed.
The level of post-treatment improvement in symptoms was assessed after 3 weeks or longer. A stepwise assessment was done as follows: an exacerbation in symptom=0, no change=1, an improvement in symptom and easiness in dairy living=2, almost satisfactory improvement=3.

[2] = test system: microvasculature; test: Contrast imaging of microvascular blood flow / vessel density after infusion
Protocol: When it is used for decreasing microvascular blood flow according to the present invention, the dose of the immune checkpoint inhibitor to be administered will vary depending on the type of the immune checkpoint inhibitor to be administered, though a skilled person can calculate an appropriate amount.
It was shown that each of the immune checkpoint inhibitors causes a clear change in tumor hemodynamics by single-agent administration 2 to 3 minutes after the infusion from the tumor vessel. Moreover, an immediate relief from cancerous pain by administration is also confirmed. Adding to these, their original effect of inhibiting immune checkpoint can also be expected, providing a prospective of relatively longer lasting effect by administration of single agent.
as §1, with “imaging. […]” for “imaging.”

[3] = test system: tumor; test: Endovascular therapy case reports, tumor response (Example 3); design: key: CR indicates an elimination of tumor from the imaging; PR indicates >50% reduction of tumor diameter; MR indicates >30% reduction of tumor diameter; NC indicates <30% reduction of tumor diameter; PD indicates an increase in tumor diameter
Protocol: Short-term tumor-reducing effect in 1 month after the administration was assessed by MRI or CT imaging. In the table, CR indicates an elimination of tumor from the imaging, PR indicates >50% reduction of tumor diameter, MR indicates >30% reduction of tumor diameter, NC indicates <30% reduction of tumor diameter, and PD indicates an increase in tumor diameter.
To Patient A who had suffered from breast cancer, an endovascular therapy was carried out using nivolumab 10 mg, pertuzumab 60 mg, bortezomib 0.7 mg, thrombomodulin 3200 U and maxacalcitol 10 μg. This patient was marked as CR by such treatment.
To Patient B who had suffered from malignant fibrous histiocytoma in right femur, an endovascular therapy was carried out using 20 mg of nivolumab. This patient was marked as CR after 3 treatments using 20 mg of nivolumab per each administration.
To Patience C who had suffered from hepatitis C and had developed liver cancer, an endovascular therapy was carried out using nivolumab 10 mg, bortezomib 0.7 mg, etanercept 25 mg, maxacalcitol 10 μg and imipenem/cilastatin sodium 500 mg/body for each administration. This patient was marked as CR after two treatments.
(§2) This patient was subjected to an endovascular therapy using nivolumab 10 mg, bortezomib 0.7 mg, etanercept 25 mg, maxacalcitol 10 μg, and thrombomodulin 3200 U, and was marked as CR by such treatment. […] FIG. 4 is a graph showing the transition of % IS of BCR-ABL mRNA before and after the endovascular therapy for the […] in this patient.

[4] = test system: BCR-ABL mRNA; test: % IS of BCR-ABL mRNA, marker for chronic myeloid leukemia, before and after endovascular therapy; settings: Patient D, after endovascular therapy for bladder cancer (time point 2 to 3, FIG. 4)
Protocol: as §2

pembrolizumab
Side effect ([1]; Case 1, Left gonarthritis, P 1 mg/body + imp/cs 500, bv 50, bort 0.35, maxa 10): 0 | Effect (improvement in symptoms) ([1]; Case 1, Left gonarthritis, P 1 mg/body + imp/cs 500, bv 50, bort 0.35, maxa 10, after 3 weeks or longer): 1 | Effect (improvement in symptoms) ([1]; Case 2, Elbow joint RA 5 y, P 4 mg/body + eta 25, bort 0.35, imp/cs 500, after 3 weeks or longer): 3 | Side effect ([1]; Case 2, Elbow joint RA, P 4 mg/body + eta 25, bort 0.35, imp/cs 500): 0 | Effect (improvement in symptoms) ([1]; Case 3, Hip osteoarthritis 5 y, P 3 mg/body + eta 25, bort 0.35, maxa 10, imp/cs 501, after 3 weeks or longer): 3 | Side effect ([1]; Case 3, Hip osteoarthritis, P 3 mg/body + eta 25, bort 0.35, maxa 10, imp/cs 501): 0 | Side effect ([1]; Case 4, Left shoulder pain, P 3 mg/body + bort 0.35): 0 | Effect (improvement in symptoms) ([1]; Case 4, Left shoulder pain, P 3 mg/body + bort 0.35, after 3 weeks or longer): 3 | Effect (improvement in symptoms) ([1]; Case 5, Lumbar spinal stenosis 5 y, P 2 mg/body + bort 0.36, after 3 weeks or longer): 2 | Side effect ([1]; Case 5, Lumbar spinal stenosis, P 2 mg/body + bort 0.36): 0 | Side effect ([1]; Case 6, Right foot Lisfranc joint injury, P 1 mg/body + bv 50, bort 0.35, eta 25, maxa 10): 0 | Effect (improvement in symptoms) ([1]; Case 6, Right foot Lisfranc joint injury, P 1 mg/body + bv 50, bort 0.35, eta 25, maxa 10, after 3 weeks or longer): 3 | Effect (improvement in symptoms) ([1]; Case 7, Low back pain after spinal compression fracture 1.5 y, P 1 mg/body + bort 0.35, eta 25, maxa 10, reco 3200, after 3 weeks or longer): 2 | Side effect ([1]; Case 7, Low back pain after spinal compression fracture, P 1 mg/body + bort 0.35, eta 25, maxa 10, reco 3200): 0 | Effect (improvement in symptoms) ([1]; Case 8, Right knee RA 3.8 y, P 2 mg/body + bort 0.35, eta 25, reco 3200, after 3 weeks or longer): 2 | Side effect ([1]; Case 8, Right knee RA, P 2 mg/body + bort 0.35, eta 25, reco 3200): 0 | Effect (improvement in symptoms) ([1]; Case 9, Bilateral knee joint replacement postoperation 1.5 y, P 2 mg/body + eta 25, imp/cs 500, after 3 weeks or longer): 1 | Side effect ([1]; Case 9, Bilateral knee joint replacement postoperation, P 2 mg/body + eta 25, imp/cs 500): 0 | Side effect ([1]; Case 10, Piriformis syndrome, P 1 mg/body + bort 0.35, eta 25, reco 3200): 0 | Effect (improvement in symptoms) ([1]; Case 10, Piriformis syndrome, P 1 mg/body + bort 0.35, eta 25, reco 3200, after 3 weeks or longer): 2 | Side effect ([1]; Case 11, Left Achilles peritendinitis, P 1 mg/body): 0 | Effect (improvement in symptoms) ([1]; Case 11, Left Achilles peritendinitis, P 1 mg/body, no combined drug printed, after 3 weeks or longer): 3 | Side effect ([1]; Case 12, Bilateral gonarthrosis, P 2 mg/body): 0 | Effect (improvement in symptoms) ([1]; Case 12, Bilateral gonarthrosis, P 2 mg/body, no combined drug printed, after 3 weeks or longer): 2 | Side effect ([1]; Case 13, Left gonarthrosis, foot arthritis, P 2 mg/body): 0 | Effect (improvement in symptoms) ([1]; Case 13, Left gonarthrosis, foot arthritis, P 2 mg/body, no combined drug printed, after 3 weeks or longer): 1 | Side effect ([1]; Case 14, Right foot joint MFP syndrome, P 1 mg/body): 0 | Effect (improvement in symptoms) ([1]; Case 14, Right foot joint MFP syndrome, P 1 mg/body, no combined drug printed, after 3 weeks or longer): 2 | side effects considered to be caused by the therapy ([1]; all 14 cases, including minor side effects such as transient fever): No side effect; also recorded: without any side effects | cases with rating of 2 or more (improvement in symptom) ([1]; out of 14 cases, pembrolizumab 1 to 4 mg/body into target vessel, after 3 weeks or longer): 11 | chronic pain ([1]; selective arterial infusion to the site of pain, 1 to 2 mg/body, diluted at 1 to 2% in physiological saline): cancellation of chronic pain | abnormal microvascular density ([2]; Cases 7 and 8, 2 minutes after drug administration (FIGS. 5 and 6)): significant decrease in abnormal microvascular density

ipilimumab
tumor vessel density-decreasing effect ([2]; by itself, injection into nutrient artery): strong tumor vessel density-decreasing effect

nivolumab
tumor response ([3]; Patient A, breast cancer, nivolumab 10 mg with pertuzumab 60 mg, bortezomib 0.7 mg, thrombomodulin 3200 U, maxacalcitol 10 μg): CR | tumor response ([3]; Patient B, malignant fibrous histiocytoma in right femur (metastasis to lung), after 3 treatments, 20 mg of nivolumab per administration): CR | tumor response ([3]; Patient C, liver cancer (hepatitis C), stage II, after two treatments, nivolumab 10 mg with bortezomib 0.7 mg, etanercept 25 mg, maxacalcitol 10 μg, imipenem/cilastatin sodium 500 mg/body): CR | tumor response ([3]; Patient D, bladder cancer (chronic myeloid leukemia), stage II, nivolumab 10 mg with bortezomib 0.7 mg, etanercept 25 mg, maxacalcitol 10 μg, thrombomodulin 3200 U): CR | % IS of BCR-ABL mRNA [4]: decreased
